Activity calls are given as the source filed them.
Columns and labels:
P388/ADR = assay: cells; type: functional; settings: Mus musculus
SN12K1 = assay: cells; type: functional; settings: Homo sapiens
P388 = assay: cells; type: functional; settings: Mus musculus
Protein Wnt-3a = Protein Wnt-3a (Mus musculus, UniProt P27467); assay: Wnt3a-driven reporter signaling inhibition, dose response, selectivity assay for Gli-SUFU antagonist project, Wnt-LIGHT cells, luminescence (AID 651570); type: functional; settings: read-out: IC50_Mean;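 note: Wnt-LIGHT reporter cells stimulated with conditioned medium from Wnt3a-producing cells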
[1] = control 3'UTR Renilla luciferase suppression, dose response, counter-screen for Shn3 inhibitor project, cell-based, Clone20-Shn3RL, cherry-picked (AID 624133); type: functional
INS1 = assay: beta cell apoptosis inhibitors, cytokine rescue, dose response, luminescence, retest (AID 449756); type: functional, cell-based; settings: Rattus norvegicus;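 note: cell death triggered by IL-1 beta plus TNF-alpha plus IFN-gamma mixture; protective hits raise ATP signal compared with cytokine alone wells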
[2] = HepG2 cell cytotoxicity, dose response, cytotoxicity control for Shn3 inhibitor project, CellTiter-Glo, cherry-picked (AID 624134); type: functional, cell-based
[3] = Shn3 3'UTR reporter inhibitors, dose response, cell-based, Clone20 osteoblasts, firefly luciferase, cherry-picked (AID 624132); type: functional;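 note: firefly luciferase luminescence from reporter carrying the Shn3 3'UTR in osteoblasts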
Fatty acid synthase [4] = molecular target: T1, Fatty acid synthase (Homo sapiens, UniProt P49327); assay: FAS thioesterase domain inhibitors, dose response, biochemical, endpoint fluorescence intensity, uHTS hits (AID 624327); type: functional;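 note: fluorescence from hydrolysis of an O-methyl fluorescein acyl ester substrate by the enzyme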
Fatty acid synthase [5] = molecular target: T1, Fatty acid synthase; assay: FAS thioesterase domain inhibitors, dose response, biochemical, kinetic fluorescence intensity (AID 624326); type: functional;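 note: rate of fluorescence rise from hydrolysis of a fluorogenic O-methyl fluorescein ester substrate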
[6] = inhibitors of clade B AD8 Env fusion, dose response, cell-based, cherry-pick (AID 652062); type: functional;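 note: luciferase signal from cell-cell fusion driven by HIV-1 clade B AD8 Env; potency is for inhibitors of fusion seen as a drop in luminescence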
[7] = inhibitors of HIV Env-driven cell fusion, dose response, cherry-pick (AID 652057); type: functional, cell-based
[8] = ZM109 Env clade C HIV-1 fusion inhibitors, dose response, HeLa effector, CEM target cells, luciferase, cherry-pick (AID 652058); type: functional, cell-based
[9] = off-target signal loss in HeLa-CEM21 co-culture – HeLa F-luc CTL cells, cherry-picked, counter-screen for HIV-1 Env fusion inhibitor project, dose response (AID 652040); type: functional, cell-based;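 note: potency for signal decrease marking cytotoxic or nonspecific inhibition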
Protein skinhead-1 = molecular target: T2, Protein skinhead-1 (Caenorhabditis elegans, UniProt P34707); type: functional
T2 sequence (P34707 whole entry): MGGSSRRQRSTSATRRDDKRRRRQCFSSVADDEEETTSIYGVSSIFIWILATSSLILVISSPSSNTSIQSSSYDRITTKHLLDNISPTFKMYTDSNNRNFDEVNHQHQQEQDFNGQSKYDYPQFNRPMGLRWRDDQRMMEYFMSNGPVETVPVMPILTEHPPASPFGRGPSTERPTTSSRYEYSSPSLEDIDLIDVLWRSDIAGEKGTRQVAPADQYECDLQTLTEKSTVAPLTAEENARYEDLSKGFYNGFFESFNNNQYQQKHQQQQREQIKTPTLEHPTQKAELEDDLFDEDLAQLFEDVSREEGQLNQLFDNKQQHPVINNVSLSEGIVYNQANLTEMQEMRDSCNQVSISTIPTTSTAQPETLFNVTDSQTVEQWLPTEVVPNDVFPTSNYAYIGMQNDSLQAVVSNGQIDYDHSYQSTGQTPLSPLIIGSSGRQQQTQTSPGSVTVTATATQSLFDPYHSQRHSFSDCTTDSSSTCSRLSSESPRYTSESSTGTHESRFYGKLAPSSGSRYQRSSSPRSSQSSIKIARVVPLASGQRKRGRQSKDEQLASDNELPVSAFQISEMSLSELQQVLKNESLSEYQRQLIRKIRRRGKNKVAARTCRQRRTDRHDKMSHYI

[10] = molecular target: T3, Corticotropin-releasing factor receptor 2/Corticotropin-releasing factor-binding protein (Homo sapiens, UniProt P24387+Q13324); assay: activators of CRF receptor 2 with binding protein – uHTS hits, confirmation (AID 602473); type: functional; settings: read-out: EC50_Mean
T3 sequence (Q13324 whole entry): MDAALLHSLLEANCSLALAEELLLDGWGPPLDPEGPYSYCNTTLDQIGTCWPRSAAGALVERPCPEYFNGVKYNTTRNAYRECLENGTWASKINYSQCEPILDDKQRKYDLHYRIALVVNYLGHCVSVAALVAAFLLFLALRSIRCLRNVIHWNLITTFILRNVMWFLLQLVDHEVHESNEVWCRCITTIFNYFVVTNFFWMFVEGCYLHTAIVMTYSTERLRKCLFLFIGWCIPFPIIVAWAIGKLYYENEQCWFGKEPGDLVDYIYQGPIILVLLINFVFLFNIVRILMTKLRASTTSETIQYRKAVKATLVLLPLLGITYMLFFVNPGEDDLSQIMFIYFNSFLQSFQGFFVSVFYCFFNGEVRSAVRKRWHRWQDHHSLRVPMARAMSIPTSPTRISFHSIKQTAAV
T3 sequence (P24387 whole entry): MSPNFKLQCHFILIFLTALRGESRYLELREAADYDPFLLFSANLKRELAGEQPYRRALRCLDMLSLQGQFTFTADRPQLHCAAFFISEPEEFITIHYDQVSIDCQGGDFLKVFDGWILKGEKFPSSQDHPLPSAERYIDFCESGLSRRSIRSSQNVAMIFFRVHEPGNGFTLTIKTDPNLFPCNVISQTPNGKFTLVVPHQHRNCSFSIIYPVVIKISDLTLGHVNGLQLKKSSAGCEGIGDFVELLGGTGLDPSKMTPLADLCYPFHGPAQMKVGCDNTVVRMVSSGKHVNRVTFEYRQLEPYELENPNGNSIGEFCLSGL

[11] = molecular target: T3, Corticotropin-releasing factor receptor 2/Corticotropin-releasing factor-binding protein; assay: Dose Response confirmation of uHTS hits for small molecule antagonists of the CRF-binding protein and CRF-R2 receptor complex.; type: functional; settings: read-out: IC50_Mean
Vero = Vero cell cytotoxicity, cytotoxicity control for flavivirus capping enzyme inhibitors (AID 588742); type: functional; settings: Chlorocebus sabaeus
[12] = inhibitors of SNCA 5'UTR-driven reporter translation, confirmation, H4 neuroglioma cells, luminescence (AID 1988); type: functional, cell-based
[13] = Luminescence Cell-Based Dose Response HTS to Identify Inhibitors of 5'UTR Stem-Loop Driven Prion Protein mRNA Translation in H4 Neuroglioblastoma Cells. [Related pubchem assays: 1827 (Project Summary), 1813 (Primary HTS)]; type: functional
[14] = inhibitors of firefly luciferase expression or activity, dose response, H4 neuroglioma cells, luminescence (AID 1990); type: functional, cell-based
[15] = Luminescence Cell-Based Dose Retest to Confirm Inhibitors of Cancer Stem Cells. [Related pubchem assays (depositor defined):AID2717, AID2721]; type: functional; settings: Homo sapiens
[16] = cytotoxicity in HEK-293T cells, dose response, cytotoxicity control for TCR NF-kB inhibitor project, luminescence, T-cell screen hits (AID 489026); type: functional, cell-based;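 note: cells exposed to compound about 14 hours before the viability readout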
[17] = molecular target: T4, Zinc finger protein mex-5 (Caenorhabditis elegans, UniProt Q9XUB2); assay: MEX-5/TCR-2 RNA interaction inhibitors, dose response, biochemical, C. elegans, fluorescence polarization (AID 1960)
T4 sequence (Q9XUB2 whole entry): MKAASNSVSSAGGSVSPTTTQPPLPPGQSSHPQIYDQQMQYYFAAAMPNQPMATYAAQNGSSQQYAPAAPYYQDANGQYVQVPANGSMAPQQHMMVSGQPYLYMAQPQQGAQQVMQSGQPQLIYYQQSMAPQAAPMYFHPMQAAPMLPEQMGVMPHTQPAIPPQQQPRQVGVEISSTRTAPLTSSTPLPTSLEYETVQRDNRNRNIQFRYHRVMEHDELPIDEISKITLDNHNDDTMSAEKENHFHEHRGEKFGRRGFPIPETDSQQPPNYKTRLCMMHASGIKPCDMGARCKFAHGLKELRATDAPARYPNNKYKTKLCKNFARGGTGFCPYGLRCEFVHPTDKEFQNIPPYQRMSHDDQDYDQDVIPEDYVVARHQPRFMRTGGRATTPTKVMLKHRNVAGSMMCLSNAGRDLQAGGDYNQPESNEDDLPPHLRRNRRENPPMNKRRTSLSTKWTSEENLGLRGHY

[18] = molecular target: T5, RNA-binding protein pos-1 (Caenorhabditis elegans, UniProt G5EF15); assay: inhibitors of POS-1/mex-3 RNA binding, dose response, biochemical, fluorescence polarization (AID 1964);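 note: purified POS-1 fused to maltose binding protein made in E. coli; potency of compounds blocking POS-1 binding to fluorescent RNA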
T5 sequence (G5EF15 whole entry): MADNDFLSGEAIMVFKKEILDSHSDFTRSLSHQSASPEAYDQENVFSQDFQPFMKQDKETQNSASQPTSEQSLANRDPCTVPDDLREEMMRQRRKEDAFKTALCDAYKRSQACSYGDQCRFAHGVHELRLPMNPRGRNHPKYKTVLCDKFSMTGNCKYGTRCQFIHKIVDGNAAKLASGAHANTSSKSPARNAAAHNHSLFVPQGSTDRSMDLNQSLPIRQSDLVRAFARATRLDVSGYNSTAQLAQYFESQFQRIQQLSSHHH

[19] = molecular target: Heat shock protein HSP 90-alpha (Homo sapiens, UniProt P07900); type: functional, organism-based

T1 sequence (P49327 whole entry, the tested form may be a part): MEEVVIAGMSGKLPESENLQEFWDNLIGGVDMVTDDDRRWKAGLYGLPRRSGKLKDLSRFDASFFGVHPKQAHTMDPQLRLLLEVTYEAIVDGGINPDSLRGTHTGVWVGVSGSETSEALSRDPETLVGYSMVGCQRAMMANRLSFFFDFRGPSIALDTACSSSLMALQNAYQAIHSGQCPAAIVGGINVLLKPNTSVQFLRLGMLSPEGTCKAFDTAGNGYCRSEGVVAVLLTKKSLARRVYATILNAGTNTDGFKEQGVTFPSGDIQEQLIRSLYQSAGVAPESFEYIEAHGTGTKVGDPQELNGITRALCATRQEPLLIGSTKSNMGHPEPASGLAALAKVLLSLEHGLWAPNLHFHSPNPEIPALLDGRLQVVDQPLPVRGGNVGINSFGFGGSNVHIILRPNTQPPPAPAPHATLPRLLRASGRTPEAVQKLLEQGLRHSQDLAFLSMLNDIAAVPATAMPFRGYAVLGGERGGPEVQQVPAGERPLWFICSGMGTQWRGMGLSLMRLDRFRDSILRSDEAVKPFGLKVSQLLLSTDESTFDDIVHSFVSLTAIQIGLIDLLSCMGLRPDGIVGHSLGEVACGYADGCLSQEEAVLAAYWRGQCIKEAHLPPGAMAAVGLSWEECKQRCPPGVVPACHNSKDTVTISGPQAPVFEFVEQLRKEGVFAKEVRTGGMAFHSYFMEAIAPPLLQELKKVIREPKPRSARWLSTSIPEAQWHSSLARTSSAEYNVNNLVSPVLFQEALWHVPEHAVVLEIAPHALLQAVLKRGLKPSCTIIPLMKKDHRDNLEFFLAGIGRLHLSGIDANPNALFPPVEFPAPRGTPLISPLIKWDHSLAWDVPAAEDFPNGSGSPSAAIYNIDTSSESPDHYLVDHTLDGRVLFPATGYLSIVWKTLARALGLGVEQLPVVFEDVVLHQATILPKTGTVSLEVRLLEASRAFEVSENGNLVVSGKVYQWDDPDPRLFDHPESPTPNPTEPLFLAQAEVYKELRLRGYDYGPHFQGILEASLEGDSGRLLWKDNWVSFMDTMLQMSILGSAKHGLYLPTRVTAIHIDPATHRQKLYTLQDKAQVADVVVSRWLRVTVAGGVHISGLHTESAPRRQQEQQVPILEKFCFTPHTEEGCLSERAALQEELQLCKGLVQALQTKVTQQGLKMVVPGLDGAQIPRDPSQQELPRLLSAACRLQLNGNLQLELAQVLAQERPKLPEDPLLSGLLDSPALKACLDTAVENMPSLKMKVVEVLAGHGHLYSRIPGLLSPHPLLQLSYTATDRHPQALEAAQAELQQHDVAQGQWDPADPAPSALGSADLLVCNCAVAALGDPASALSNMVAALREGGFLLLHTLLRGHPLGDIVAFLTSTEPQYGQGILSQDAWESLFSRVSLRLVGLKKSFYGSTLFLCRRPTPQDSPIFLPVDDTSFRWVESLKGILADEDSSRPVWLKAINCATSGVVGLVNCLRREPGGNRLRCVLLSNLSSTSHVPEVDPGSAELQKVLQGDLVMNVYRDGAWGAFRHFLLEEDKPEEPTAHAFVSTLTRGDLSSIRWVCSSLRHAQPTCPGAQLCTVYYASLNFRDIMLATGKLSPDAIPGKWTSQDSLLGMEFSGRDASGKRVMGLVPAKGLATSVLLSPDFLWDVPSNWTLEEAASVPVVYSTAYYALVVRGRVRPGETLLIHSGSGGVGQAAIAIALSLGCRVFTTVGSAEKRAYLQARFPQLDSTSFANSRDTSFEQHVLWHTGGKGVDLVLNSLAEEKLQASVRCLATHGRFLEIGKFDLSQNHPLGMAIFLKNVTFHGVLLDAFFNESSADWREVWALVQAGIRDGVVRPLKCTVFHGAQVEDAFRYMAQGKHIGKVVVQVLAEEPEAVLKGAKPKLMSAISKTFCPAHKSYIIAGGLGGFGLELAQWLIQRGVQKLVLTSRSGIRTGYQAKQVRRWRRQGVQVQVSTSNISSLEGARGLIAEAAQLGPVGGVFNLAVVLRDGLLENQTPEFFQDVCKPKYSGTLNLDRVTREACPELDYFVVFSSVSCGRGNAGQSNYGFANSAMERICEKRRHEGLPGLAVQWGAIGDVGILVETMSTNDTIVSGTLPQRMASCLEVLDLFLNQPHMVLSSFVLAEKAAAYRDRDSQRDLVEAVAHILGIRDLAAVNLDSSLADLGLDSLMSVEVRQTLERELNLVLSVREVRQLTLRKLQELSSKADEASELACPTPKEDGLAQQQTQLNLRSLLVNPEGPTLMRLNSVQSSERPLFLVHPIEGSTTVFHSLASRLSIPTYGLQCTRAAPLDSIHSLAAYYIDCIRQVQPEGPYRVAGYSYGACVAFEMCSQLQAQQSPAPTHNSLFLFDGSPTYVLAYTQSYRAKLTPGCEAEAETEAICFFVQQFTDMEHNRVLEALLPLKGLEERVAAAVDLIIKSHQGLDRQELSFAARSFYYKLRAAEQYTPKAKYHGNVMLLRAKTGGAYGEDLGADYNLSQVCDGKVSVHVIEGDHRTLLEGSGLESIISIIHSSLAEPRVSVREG
Sequence of Protein Wnt-3a (P27467 whole entry): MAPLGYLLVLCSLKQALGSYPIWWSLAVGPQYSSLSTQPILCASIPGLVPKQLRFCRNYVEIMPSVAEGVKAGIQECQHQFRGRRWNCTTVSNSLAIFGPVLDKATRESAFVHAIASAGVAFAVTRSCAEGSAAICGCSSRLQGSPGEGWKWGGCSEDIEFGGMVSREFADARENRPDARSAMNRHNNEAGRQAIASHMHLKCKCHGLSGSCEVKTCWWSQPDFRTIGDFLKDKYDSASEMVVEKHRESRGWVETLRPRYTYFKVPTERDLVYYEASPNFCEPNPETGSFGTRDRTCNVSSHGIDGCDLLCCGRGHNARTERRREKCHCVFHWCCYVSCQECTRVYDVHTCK

Q: For `Nc1nc(N)c2cc(CNc3ccc(C(=O)NC(CC(=O)O)C(=O)O)c(Cl)c3)ccc2n1` (stereo not given), which GI50 (P388/ADR) is on record?
A: Its GI50 is < 0.01 µM (active).

Q: What about the GI50 (SN12K1) of the same compound?
A: The GI50 was 0.014 µM (active).

Q: What about the GI50 (P388) of the same compound?
A: Its GI50 is < 0.01 µM (active).

Q: With `Cc1c(C(C)C)c(=O)n(-c2ccc(S(=O)(=O)NCc3ccccc3)cc2)n1C` as the compound, how does the IC50 (Protein Wnt-3a) read?
A: Its IC50 is 5.02 µM (active).

Q: And the AC50 [1]?
A: The AC50 was 1.96 µM (active).

Q: And the AC50 (INS1)?
A: Its AC50 is 2.71 µM (active).

Q: What about the AC50 [2] of the same compound?
A: Its AC50 is 2.48 µM (active).

Q: What about the AC50 [3] of the same compound?
A: The AC50 was 1.18 µM (active).

Q: Which IC50 (Fatty acid synthase [4]) does the source give for `Cc1cc(C)c(C(=O)COC(=O)c2cc([N+](=O)[O-])ccc2NCCO)cc1C` here?
A: Its IC50 is 8.07 µM (active).

Q: And the IC50 (Fatty acid synthase [5])?
A: The IC50 was 13.3 µM (active).

Q: Which AC50 [6] does the source give for `CC1(C)C2CCC1(C)C(OCCNCCOC(=O)Nc1ccccc1)C2` (stereo not given) here?
A: The AC50 was 27.5 µM (active).

Q: What about the AC50 [7] of the same compound?
A: The AC50 was 8.49 µM (active).

Q: What about the AC50 [8] of the same compound?
A: Its AC50 is 8.26 µM (active).

Q: And the AC50 [9]?
A: The AC50 was 27.6 µM (active).

Q: Which GI50 (SN12K1) does the source give for `O=S(=O)(O)c1cc(S(=O)(=O)O)c2cc(/N=N/c3ccc(/N=N/c4ccc(/C=C/c5ccc(/N=[N+](/[O-])c6ccc(/C=C/c7ccc(/N=N/c8ccc(/N=N/c9ccc%10cc(S(=O)(=O)O)cc(S(=O)(=O)O)c%10c9)cc8)cc7S(=O)(=O)O)c(S(=O)(=O)O)c6)cc5S(=O)(=O)O)c(S(=O)(=O)O)c4)cc3)ccc2c1` here?
A: The GI50 was > 95.1 µM (inactive).

Q: And the GI50 (P388)?
A: Its GI50 is 14.7 µM (inactive).

Q: What does the source list for `COC(=O)NC1C(C)OC(OC2C/C=C(/C)C3C=CC4C(OC5CC(OC6CC(O)C(OC7CC(O)C(OC)C(C)O7)C(C)O6)C(O)C(C)O5)C(C)CC(C)C4C3(C)C(=O)C3=C(O)C4(CC(C)C(CO)=CC4/C=C\2C)OC3=O)CC1(C)[N+](=O)[O-]` (stereo not given)?
A: GI50 (P388/ADR): 5.56 µM (inactive); GI50 (SN12K1): 6.21 µM (inactive); GI50 (P388): 3.55 µM (inactive)

Q: What does the source list for `O=C(NC(Cc1ccc(Br)cc1)C(=O)O)c1ccc(I)cc1` (stereo not given)?
A: GI50 (P388/ADR): > 66.1 µM (inactive); GI50 (SN12K1): > 100 µM (inactive); GI50 (P388): > 80.9 µM (inactive)

Q: With `Cn1nnc2cc(C(=O)NCCC3=CCCCC3)ccc21` as the compound, how does the IC50 (Protein skinhead-1) read?
A: Its IC50 is > 100 µM (inactive).

Q: And the EC50 [10]?
A: Its EC50 is > 53 µM (inactive).

Q: What about the IC50 [11] of the same compound?
A: Its IC50 is > 47.1 µM (inactive).

Q: For `CCN1C(=O)/C(=C/C=C2\C=CN(CC)c3ccccc32)SC1=S`, which CC50 (Vero) is on record?
A: The CC50 was > 40 µM (active).

Q: Which EC50 [12] does the source give for `O=C1CC(c2cc(Br)ccc2F)c2cc3c(cc2N1)CCC3` (stereo not given) here?
A: The EC50 was 1.48 µM (inconclusive).

Q: And the EC50 [13]?
A: Its EC50 is 2.01 µM (active).

Q: What about the EC50 [14] of the same compound?
A: Its EC50 is 7.6 µM (active).

Q: And the AC50 [15]?
A: Its AC50 is < 0.16 µM (active).

Q: And the IC50 [16]?
A: Its IC50 is > 80 µM (inactive).

Q: With `COC(=O)c1ccc(CSc2nc3ccccc3o2)cc1` as the compound, how does the IC50 (Protein skinhead-1) read?
A: Its IC50 is 41.7 µM (active).

Q: Which results are given for `CCCCN1C(=O)/C(=C/C=C2\Oc3ccccc3N2CC)SC1=S`?
A: EC50 [17]: > 300 µM (not active); EC50 [18]: 48.2 µM (active); AC50 [19]: 171 µM (active)

Reference: ChEMBL document CHEMBL1201862, “PubChem BioAssay data set” (2004)
